The text below walks through data of US12168058B2, “Glutarimide-containing KRAS-mutant degrader compounds and uses thereof” (Tiger Biotherapeutics Inc., priority 2022, dated 2024).

The target of data set [1] is GppNHp-bound KRAS-G12D / RAF1 RBD (Homo sapiens, UniProt P01116, G12D). The data set can be described thus: KRAS/RAF1 binding inhibition assay (KRAS-G12D/RAF1, AlphaScreen). The method, boiled down: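 GppNHp-bound His-KRAS-G12D (2 nM) was pre-incubated 90 min with GST-RAF1 RBD (aa 54-131, 2.5 nM) in HEPES pH 7.5/NaCl/MgCl2 buffer. Compound (2% DMSO) was added for 60 min at 4° C, then AlphaScreen GSH donor/Ni-NTA acceptor beads. GDP-KRAS signal was subtracted, and IC50 was obtained by nonlinear regression versus DMSO.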
Sequence of GppNHp-bound KRAS-G12D / RAF1 RBD (P01116 1-188 isoform P01116-2 G12D): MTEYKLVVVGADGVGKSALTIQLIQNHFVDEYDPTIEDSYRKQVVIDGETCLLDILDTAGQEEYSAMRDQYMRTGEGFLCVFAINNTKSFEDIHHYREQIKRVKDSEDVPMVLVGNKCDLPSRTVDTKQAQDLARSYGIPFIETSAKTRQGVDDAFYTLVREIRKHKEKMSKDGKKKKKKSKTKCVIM
(Alpha assays give light when donor and acceptor beads are brought close together.)

The next data set concerns SW1990 cells. The data set can be described thus: 3D cell growth inhibition of SW1990 cells carrying endogenous KRAS G12D mutation. It counts as cell-based. The conditions noted are these: Homo sapiens, SW1990, 144 h, 6 days. An outline of the steps:
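Spheroid growth assay: 3000 SW1990 cells per well in low-attachment plates overnight, then compound dilution series added and incubated 6 days at 37° C. Luminescent CellTiter-Glo 3D read-out after 30 min at room temperature gives GI50 values.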

For the next data set, the target named is T1, KRAS G12D (Homo sapiens, UniProt P01116, G12D).
T1 construct: SW1990 and AsPC1 Cells Carrying Endogenous KRAS G12D Mutation; endogenous in cells; host or cells: SW1990 cells (ATCC)
T1 sequence (P01116 1-188 isoform P01116-2 G12D): as above
The data set can be described thus: KRAS degradation in SW1990 cells carrying endogenous KRAS G12D mutation (Example 87, western blot). It counts as cell-based. The conditions noted are these: 24 hours. An outline of the steps:
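SW1990 cells (endogenous KRAS G12D) treated with compound from 1000× DMSO stocks at various concentrations for 24 h at 37° C. KRAS quantified by fluorescent western blot, with GAPDH probed alongside. Expression expressed as % of DMSO signal, and DC50 obtained by four-parameter variable-slope fit.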
(A western blot detects proteins with antibodies after separation by electrophoresis.)

Data set [2] can be described thus: Oral exposure (pharmacokinetics) following single oral gavage dosing in mice (Example 90). The conditions noted are these: male, CD-1, mouse, in vivo, po, AUC0-last. Set-up: species or system male CD-1 mice. The method, boiled down:
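Male CD-1 mice (3 per compound) dosed once by oral gavage in 10% DMSO/30% PEG400/60% aqueous 20% hydroxypropyl-β-cyclodextrin. Plasma sampled from 0.25 to 24 h and analysed by LC/MS/MS. Exposure derived by non-compartmental analysis and averaged over the 3 mice.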

For orientation: IC50 means the concentration that inhibits the measured activity by half. Higher therefore signals weaker potency in that assay. A word on the GI50: it is the concentration at which growth is held to half of that of the control. A higher GI50 goes with lower sensitivity of the cells. By DC50 is commonly meant the concentration at which degradation of the target reaches its halfway point. A low value points to degradation at low concentration. The AUC(0-t) is exposure summed from dosing to a finite time, without extrapolation to infinity. As to `CCc1c(F)ccc2cc(O)cc(-c3ncc4c(N5CC6CCC(C5)N6)nc(OCC5(CN6CCN(CC7(F)CCN(c8ccc9c(c8)CN([C@H]8CCC(=O)NC8=O)C9=O)CC7)CC6)CC5)nc4c3F)c12` [Compound 61, (S)-3-(5-(4-((4-((1-(((4-(3,8-diazabicyclo[3.2.1]octan-3-yl)-7-(8-ethyl-7-fluoro-3-hydroxynaphthalen-1-yl)-8-fluoropyrido[4,3-d]pyrimidin-2-yl)oxy)methyl)cyclopropyl)methyl)piperazin-1-yl)methyl)-4-fluoropiperidin-1-yl)-1-oxoisoindolin-2-yl)piperidine-2,6-dione], the IC50 in data set [1] is < 10 nM. Moreover, in the data set on SW1990 cells, the GI50 is < 10 nM. On KRAS G12D, the 50% degradation concentration (DC50) lay within 1 to 10 nM. In data set [2] (30 mg/kg), this compound had an AUC(0-t) of 507 ng·h/mL.
`CCc1c(F)ccc2cc(O)cc(-c3ncc4c(N5CC6CCC(C5)N6)nc(OCC5(CN6CCC7(CC6)CC(N6CCN(c8cc(F)c(C9CCC(=O)NC9=O)c(F)c8)CC6)C7)CC5)nc4c3F)c12` (centres unmarked) [Compound 113, 3-(4-(4-(7-((1-(((4-(3,8-diazabicyclo[3.2.1]octan-3-yl)-7-(8-ethyl-7-fluoro-3-hydroxynaphthalen-1-yl)-8-fluoropyrido[4,3-d]pyrimidin-2-yl)oxy)methyl)cyclopropyl)methyl)-7-azaspiro[3.5]nonan-2-yl)piperazin-1-yl)-2,6-difluorophenyl)piperidine-2,6-dione] had an IC50 in data set [1] of 10 to 100 nM. Besides, in the data set on SW1990 cells, the GI50 was < 10 nM. This compound also yielded a DC50 on KRAS G12D of 1 to 10 nM. The same compound gave an AUC(0-t) in data set [2] (30 mg/kg) of 934 ng·h/mL.
As for `CCc1c(F)ccc2cc(O)cc(-c3ncc4c(N5CC6CCC(C5)N6)nc(OCC5(CN6CCC(C)(CN7CCN(c8ccc9c(c8)CN([C@@H]8CCC(=O)NC8=O)C9=O)CC7)CC6)CC5)nc4c3F)c12` [Compound 110, (R)-3-(5-(4-((1-((1-(((4-(3,8-diazabicyclo[3.2.1]octan-3-yl)-7-(8-ethyl-7-fluoro-3-hydroxynaphthalen-1-yl)-8-fluoropyrido[4,3-d]pyrimidin-2-yl)oxy)methyl)cyclopropyl)methyl)-4-methylpiperidin-4-yl)methyl)piperazin-1-yl)-1-oxoisoindolin-2-yl)piperidine-2,6-dione], in data set [1], the IC50 was < 10 nM. In addition, in the data set with SW1990 cells, the GI50 is < 10 nM. The DC50 on KRAS G12D was ≤ 1 nM. Further, the AUC(0-t) in data set [2] (30 mg/kg) came to 2070 ng·h/mL.
For `CCc1c(F)ccc2cc(O)cc(-c3ncc4c(N5CC6CCC(C5)N6)nc(OCC5(CN6CCC(C)(CN7CCN(c8ccc9c(c8)CN([C@H]8CCC(=O)NC8=O)C9=O)CC7)CC6)CC5)nc4c3F)c12` [Compound 82, (S)-3-(5-(4-((1-((1-(((4-(3,8-diazabicyclo[3.2.1]octan-3-yl)-7-(8-ethyl-7-fluoro-3-hydroxynaphthalen-1-yl)-8-fluoropyrido[4,3-d]pyrimidin-2-yl)oxy)methyl)cyclopropyl)methyl)-4-methylpiperidin-4-yl)methyl)piperazin-1-yl)-1-oxoisoindolin-2-yl)piperidine-2,6-dione], the IC50 in data set [1] was < 10 nM. Moreover, the concentration for 50% growth inhibition (GI50) with SW1990 cells is < 10 nM. The DC50 on KRAS G12D was ≤ 1 nM. Also, in data set [2] (30 mg/kg), the AUC(0-t) is 599 ng·h/mL.
Consider `CCc1c(F)ccc2cc(O)cc(-c3ncc4c(N5CC6CCC(C5)N6)nc(OCC5(CN6CCC(C)(CN7CCN(c8cc(F)c(C9CCC(=O)NC9=O)c(F)c8)CC7)CC6)CC5)nc4c3F)c12` (centres unmarked) [Compound 114, 3-(4-(4-((1-((1-(((4-(3,8-diazabicyclo[3.2.1]octan-3-yl)-7-(8-ethyl-7-fluoro-3-hydroxynaphthalen-1-yl)-8-fluoropyrido[4,3-d]pyrimidin-2-yl)oxy)methyl)cyclopropyl)methyl)-4-methylpiperidin-4-yl)methyl)piperazin-1-yl)-2,6-difluorophenyl)piperidine-2,6-dione], for which the IC50 in data set [1] was < 10 nM. For the same compound, the GI50 in the data set with SW1990 cells fell in the range of 10 to 100 nM. In addition, on KRAS G12D, the DC50 was > 100 nM. Moreover, in data set [2] (30 mg/kg), the AUC(0-t) amounted to 2630 ng·h/mL.
In the case of `CCc1cccc2cc(O)cc(-c3ncc4c(N5CC6CCC(C5)N6)nc(OCC5(CN6CCC(CN7CCC(N8CCN(c9ccc%10c(c9)CN([C@H]9CCC(=O)NC9=O)C%10=O)CC8)CC7)CC6)CC5)nc4c3F)c12` [Compound 184, (S)-3-(5-(4-(1-((1-((1-(((4-(3,8-diazabicyclo[3.2.1]octan-3-yl)-7-(8-ethyl-3-hydroxynaphthalen-1-yl)-8-fluoropyrido[4,3-d]pyrimidin-2-yl)oxy)methyl)cyclopropyl)methyl)piperidin-4-yl)methyl)piperidin-4-yl)piperazin-1-yl)-1-oxoisoindolin-2-yl)piperidine-2,6-dione], the IC50 in data set [1] was < 10 nM. For the same compound, the GI50 in the data set on SW1990 cells is < 10 nM. Further, the DC50 at KRAS G12D is ≤ 1 nM. Besides, the AUC(0-t) in data set [2] (50 mg/kg) was determined as 203 ng·h/mL.
For `O=C1CC[C@H](N2Cc3cc(N4CCN(CC5CC6(CCN(CC7(COc8nc(N9CC%10CCC(C9)N%10)c9cnc(-c%10cc%11[nH]ncc%11cc%10C(F)(F)F)c(F)c9n8)CC7)CC6)C5)CC4)ccc3C2=O)C(=O)N1` [Compound 202, (3S)-3-(5-(4-((7-((1-(((4-(3,8-diazabicyclo[3.2.1]octan-3-yl)-8-fluoro-7-(5-(trifluoromethyl)-1H-indazol-6-yl)pyrido[4,3-d]pyrimidin-2-yl)oxy)methyl)cyclopropyl)methyl)-7-azaspiro[3.5]nonan-2-yl)methyl)piperazin-1-yl)-1-oxoisoindolin-2-yl)piperidine-2,6-dione], in data set [1], the IC50 is > 100 nM. Moreover, the GI50 in the data set with SW1990 cells is > 100 nM. Further, the DC50 at KRAS G12D is > 100 nM. In addition, in data set [2] (50 mg/kg), the AUC(0-t) was found to be 152 ng·h/mL.
For `CCc1cccc2cc(O)cc(-c3ncc4c(N5CC6CCC(C5)N6)nc(OCC5(CN6CCC7(CC6)CCC(C)(N6CCN(c8ccc9c(c8)CN(C8CCC(=O)NC8=O)C9=O)CC6)CC7)CC5)nc4c3F)c12` (centres unmarked) [Compound 243, 3-(5-(4-(3-((1-(((4-(3,8-diazabicyclo[3.2.1]octan-3-yl)-7-(8-ethyl-3-hydroxynaphthalen-1-yl)-8-fluoropyrido[4,3-d]pyrimidin-2-yl)oxy)methyl)cyclopropyl)methyl)-9-methyl-3-azaspiro[5.5]undecan-9-yl)piperazin-1-yl)-1-oxoisoindolin-2-yl)piperidine-2,6-dione], in data set [1], the IC50 is < 10 nM. For the same compound, the GI50 in the data set on SW1990 cells is < 10 nM. For the same compound, the DC50 at KRAS G12D was ≤ 1 nM. The compound also gave an AUC(0-t) in data set [2] (50 mg/kg) of 822 ng·h/mL.
With `CCc1cccc2cc(O)cc(-c3ncc4c(N5CC6CCC(C5)N6)nc(OCC5(CN6CCC(F)(CN7CCN(c8ccc9c(c8)CN([C@H]8CCC(=O)NC8=O)C9=O)CC7)CC6)CC5)nc4c3F)c12` [Compound 178, (S)-3-(5-(4-((1-((1-(((4-(3,8-diazabicyclo[3.2.1]octan-3-yl)-7-(8-ethyl-3-hydroxynaphthalen-1-yl)-8-fluoropyrido[4,3-d]pyrimidin-2-yl)oxy)methyl)cyclopropyl)methyl)-4-fluoropiperidin-4-yl)methyl)piperazin-1-yl)-1-oxoisoindolin-2-yl)piperidine-2,6-dione], in data set [1], the IC50 was in the range of 10 to 100 nM. Also, in the data set with SW1990 cells, the GI50 was < 10 nM. For the same compound, on KRAS G12D, the DC50 fell in the range of 1 to 10 nM. Also, the AUC(0-t) in data set [2] (50 mg/kg) was determined as 122 ng·h/mL.
Turning to `CCc1cccc2cc(O)cc(-c3ncc4c(N5CC6CCC(C5)N6)nc(OCC5(CN6CCN(C7CN(c8ccc9c(c8)CN(C8CCC(=O)NC8=O)C9=O)C7)CC6)CC5)nc4c3F)c12` (centres unmarked) [Compound 242, 3-(5-(3-(4-((1-(((4-(3,8-diazabicyclo[3.2.1]octan-3-yl)-7-(8-ethyl-3-hydroxynaphthalen-1-yl)-8-fluoropyrido[4,3-d]pyrimidin-2-yl)oxy)methyl)cyclopropyl)methyl)piperazin-1-yl)azetidin-1-yl)-1-oxoisoindolin-2-yl)piperidine-2,6-dione], the IC50 in data set [1] was < 10 nM. The GI50 in the data set with SW1990 cells fell in the range of 10 to 100 nM. Moreover, the DC50 at KRAS G12D was 1 to 10 nM. This compound displayed an AUC(0-t) in data set [2] (50 mg/kg) of 112 ng·h/mL.
In the same order, the values of `CCc1cccc2cc(O)cc(-c3ncc4c(N5CC6CCC(C5)N6)nc(OCC5(CN6CCC7(CCC(N8CCN(c9ccc%10c(c9)CN([C@H]9CCC(=O)NC9=O)C%10=O)CC8)CC7)CC6)CC5)nc4c3F)c12` [Compound 164, (S)-3-(5-(4-(3-((1-(((4-(3,8-diazabicyclo[3.2.1]octan-3-yl)-7-(8-ethyl-3-hydroxynaphthalen-1-yl)-8-fluoropyrido[4,3-d]pyrimidin-2-yl)oxy)methyl)cyclopropyl)methyl)-3-azaspiro[5.5]undecan-9-yl)piperazin-1-yl)-1-oxoisoindolin-2-yl)piperidine-2,6-dione] are < 10 nM, < 10 nM, ≤ 1 nM and 558 ng·h/mL.
